In patent publication US9926605B2, “Functional genomics screening platform for head and neck cancer” (University of Pittsburgh—of the Commonwealth System of …, priority 2012, dated 2018):

Key:
[1] = tested on: HNSCC patient tumorgrafts; assay: Heterotopic HNSCC patient tumorgrafts in NOD/SCID mice; format: in vivo
Description: FIG. 12A-B. AZD1480 inhibits HNSCC patient tumorgraft growth in conjunction with reduce pSTAT3 expression. (A) Mice bearing heterotropic HNSCC patient tumorgrafts derived from 2 patients (10 mice per group) were treated with AZD1480 (30 mg/kg) or vehicle control, twice daily by oral gavage. Tumor volumes were measures every other day. Statistical difference was determined at the end of the experiment using the Mann-Whitney two-tailed test. (B) Tumors were harvested at the end of treatment, and whole cell lysates were prepared and subjected to immunoblotting with pSTAT3 (Tyr705) and STAT3 antibody. Beta-tubulin was used to assess protein loading. Densitometry was performed and bar graphs illustrate the cumulative findings from each HNSCC tumorgraph experiment.
In vivo studies have generally relied on xenograft tumors derived from implantation of immortalized HNSCC cell lines into immunocompromised mice. To generate a more clinically relevant platform to assess the antitumor effects of candidate therapies, human tumors were directly inoculated into NOD/SCID mice. To date, implanted tumors from 35 HNSCC patients were obtained according to previously described methods. Twenty-six of these tumors have grown successfully in mice at a median time of 16 weeks (range 6-26 weeks) for a take rate of 74%. […]

[2] = tested on: phospho-STAT3 (Tyr705) in UMSCC-1 cells; assay: pSTAT3 (Tyr705) immunoblotting in HNSCC cell line; format: cell-based, human; conditions: increasing concentration, 24 hours, immunoblot
Description: FIG. 13. […] UMSCC-1 cells were treated with increasing concentration of AZD1480. After 24 hours, cells were harvested to obtain cell lysates. Forty micrograms of protein/lane were subjected to electrophoresis and immunoblotted for phosphor-STAT3 (Tyr705) and total STAT3. Beta-tubulin was used as a loading control.
(§1) The effect of AZD1480 on STAT3 tyrosine phosphorylation and cell growth was further assessed in a panel of HNSCC cell lines.

[3] = tested on: 9 HNSC cell lines; assay: Proliferation of a panel of HNSCC cell lines; format: cell-based; conditions: Homo sapiens; range in 9 HNSC cell lines tested; data not shown; read-out: EC50 (inhibition of proliferation)
From the text: as §1

[4] = tested on: UM-SCC1 cells expressing mutant PTPRD (P1311T); assay: MTT survival and STAT3 promoter activity in UM-SCC1 cells expressing mutant PTPRD; format: cell-based, human; conditions: PTPRD mutant cells compared with controls
Description: FIG. 14. […] UM-SCC1 cells expressing mutant PTPRD (P1311T) or vector control were treated with AZD1480 (5 μm) or DMSO (vehicle) followed by MTT assay to determine % survival relative to vehicle control. Results are mean±SEM, performed in triplicate.
as §1

[5] = biological target: WT JAK2 (Homo sapiens, UniProt O60674); conditions: read-out: enzyme IC50; cited from earlier work
Chain of WT JAK2 (O60674 whole entry): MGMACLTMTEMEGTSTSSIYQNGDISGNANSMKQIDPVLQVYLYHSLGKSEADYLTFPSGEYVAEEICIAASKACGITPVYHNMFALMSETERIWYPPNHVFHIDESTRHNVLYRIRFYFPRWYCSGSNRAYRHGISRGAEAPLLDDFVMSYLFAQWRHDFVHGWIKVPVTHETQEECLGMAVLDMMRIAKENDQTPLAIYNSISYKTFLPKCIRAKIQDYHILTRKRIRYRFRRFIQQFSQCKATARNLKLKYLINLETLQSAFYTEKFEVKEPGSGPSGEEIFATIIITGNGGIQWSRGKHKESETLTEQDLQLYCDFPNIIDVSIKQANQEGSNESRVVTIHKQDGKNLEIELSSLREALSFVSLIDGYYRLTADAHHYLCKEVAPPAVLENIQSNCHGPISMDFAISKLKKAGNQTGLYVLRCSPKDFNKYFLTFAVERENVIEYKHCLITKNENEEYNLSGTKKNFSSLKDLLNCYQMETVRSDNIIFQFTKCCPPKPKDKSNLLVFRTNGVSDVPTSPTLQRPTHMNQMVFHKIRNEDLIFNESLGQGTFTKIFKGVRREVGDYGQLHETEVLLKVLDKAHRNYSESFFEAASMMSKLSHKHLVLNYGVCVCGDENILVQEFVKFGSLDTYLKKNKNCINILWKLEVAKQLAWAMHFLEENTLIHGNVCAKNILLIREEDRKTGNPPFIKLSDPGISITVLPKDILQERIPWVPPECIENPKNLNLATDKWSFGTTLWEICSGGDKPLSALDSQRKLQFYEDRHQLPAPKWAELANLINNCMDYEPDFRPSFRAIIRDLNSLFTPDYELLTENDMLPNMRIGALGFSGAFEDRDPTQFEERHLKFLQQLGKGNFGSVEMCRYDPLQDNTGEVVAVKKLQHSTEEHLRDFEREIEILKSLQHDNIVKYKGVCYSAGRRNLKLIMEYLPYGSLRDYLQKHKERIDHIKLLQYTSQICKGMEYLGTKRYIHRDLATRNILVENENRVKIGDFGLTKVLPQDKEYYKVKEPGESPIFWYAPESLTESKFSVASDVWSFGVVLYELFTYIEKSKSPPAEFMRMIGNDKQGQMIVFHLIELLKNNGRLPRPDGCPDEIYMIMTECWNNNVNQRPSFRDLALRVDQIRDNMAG

[6] = tested on: UM-SCC47 cells expressing the HRAS(Q61K) mutant; assay: Growth inhibition of UM-SCC47 cells expressing HRAS(Q61K); format: cell-based, human; conditions: 250 nM, 24 hours; HRAS(Q61K) vs HRAS WT and EGFP vector control cells, n=4
Description: (A) HRAS wildtype (WT) and HRAS (Q61K) mutant or an EGFP vector control was introduced into the HPV-HSNCC cell line, UM-SCC47, by retroviral infection.
To test whether increased PI3K signaling can be achieved by mutations in HRAS, a hotspot HRAS mutation found in our HNSCC cohort, HRAS(Q61K), was generated. Experiments were performed to determine the effect this mutation had on PI3K activation and response to PI3K pathway inhibition.

[7] = tested on: UMSCC-47 cells expressing PIK3CA (WT) or PIK3CA (E542K) mutant; conditions: 0 to 10 μM, 72 h; PIK3CA WT or E542K expressing cells vs vector control
Description: Retrovirus-infected UMSCC-47 cells expressing control EGFP gene, PIK3CA (WT) or PIK3CA (E542K) mutant were subjected to BEZ-235 (from 0 to 10 μM) treatment for 72 h followed by growth determinations.
To determine the effects of individual PIK3CA mutations on sensitivity to PI3K pathway inhibitors in HNSCC, we tested the effects of a representative PI3K pathway inhibitor (BEZ-235) in HPV-HNSCC cells engineered to express mutant or WT PIK3CA (E542K) a HNSCC line harboring a PIK3CA mutation.

[8] = tested on: PCI-52-SD1 cells expressing PTPRT(R1059L); assay: Growth inhibition of PCI-52-SD1 cells expressing PTPRT(R1059L) by JAK/STAT inhibitor; format: cell-based, human; conditions: 24 hours of treatment; PTPRT(R1059L) cells vs vector control cells, n=4
From the text: FIG. 6. Mutation of PTPRT(R1059L) leads to increased sensitivity to STAT3 inhibition in PCI-52-SD1 cells. PCI-52-SD1 cells were infected with retrovirus expressing the PTPRT(R1059L) mutant gene or PTPRT wildtype (WT) versus vector control (pMXs-EGFP vector).
Overall, our models can be used to determine if the mutation detected in a human tumor is important for tumor growth and facilitate selection of the appropriate therapeutic agents.

[9] = tested on: PE/CA-PJ49 (PTPRD I1821V) versus PE/CAPJ34 (Clone 12) HNSCC cells; assay: MTT assay in HNSCC cell lines with endogenous mutant versus WT PTPRD; format: cell-based, human; conditions: 24 hours, n=3, mutant PTPRD (I1821V) cells vs WT PTPRD cells
Description: To determine if PTPR mutation enhances sensitivity to STAT3 pathway inhibitors, HNSCC cell lines harboring endogenous PTPR mutation were compared with cell lines containing WT PTPRs. Cells were plated at equal density (3×10^4/well), treated with various concentration of the STAT3 inhibitors, Stattic (Sigma-Aldrich, MO), a small molecule inhibitor of STAT3 activation and dimerization, or JSI-124 (Calbiochem, MA) for 24 hours, followed by MTT assay (n=3). EC50 values were determined, with extrapolation at 20 μM, by GraphPad Prism 5 software.

Cc1cc(Nc2nc(N[C@@H](C)c3ncc(F)cn3)ncc2Cl)n[nH]1 [AZD1480, 5-chloro-N2-[(1S)-1-(5-fluoropyrimidin-2-yl)ethyl]-N4-(5-methyl-1H-pyrazol-3-yl)pyrimidine-2,4-diamine]
antitumor effects (tumorgraft growth) ([1]; heterotopic HNSCC patient tumorgrafts in mice, AZD1480 30 mg/kg twice daily by oral gavage): demonstrated antitumor effects
expression of pSTAT3 and STAT3 target genes in tumors ([1]; heterotopic xenografts from 2 HNSCC human tumors, end of treatment): decreased expression of pSTAT3 and STAT3 target genes
pSTAT3 expression [2]: reduced pSTAT3 expression in a dose- and time-dependent manner
EC50 [3]: 990 to 3800 nM
survival ([4]; AZD1480 5 μm, MTT): decreased survival
STAT3 promoter activity [4]: decreased survival and STAT3 promoter activity
IC50 [5]: < 3 nM

Cn1c(=O)n(-c2ccc(C(C)(C)C#N)cc2)c2c3cc(-c4cnc5ccccc5c4)ccc3ncc21 [BEZ-235]
sensitivity to growth inhibition [6]: more sensitive to growth inhibition
sensitivity to BEZ-235 treatment (growth) [7]: more sensitive to BEZ-235 treatment than vector control transfected cells

CC(C)(O)/C=C/C(=O)[C@](C)(O)[C@H]1[C@H](O)C[C@@]2(C)[C@@H]3CC=C4[C@@H](C=C(O)C(=O)C4(C)C)[C@]3(C)C(=O)C[C@]12C [JSI-124]
sensitivity to growth inhibition [8]: more sensitive to growth inhibition
sensitivity to growth inhibitory effects of STAT3 pathway inhibitors [9]: more sensitive to STAT3 pathways inhibitors

O=[N+]([O-])c1ccc2c(c1)S(=O)(=O)C=C2 [Stattic]
sensitivity to growth inhibitory effects of STAT3 pathway inhibitors [9]: more sensitive to the growth inhibitory effects
